Test results from ChEMBL document CHEMBL5108030, “Structure activity relationships leading to the identification of the indirect activator of AMPK, R419” (Bioorg Med Chem, 2022).

What was measured:
[1] = target: AMP-activated protein kinase, AMPK; experiment: Activation of AMPK in human HepG2 cells assessed as increase in ACC phosphorylation at Ser79 incubated for 1 hr; assay type: cell-based
[2] = target: AMP-activated protein kinase, AMPK; experiment: Activation of AMPK in human HepG2 cells assessed as reduction in mitochondrial ATP production incubated for 1 hr; assay type: cell-based
hERG (KCNH2) [3] = target: T1, hERG (KCNH2) (Homo sapiens, UniProt Q12809); experiment: Inhibition of human ERG at 3 uM; assay type: toxicity
A549 = experiment: Antiproliferative activity against human A549 cells assessed as cell growth inhibition incubated for 48 hrs by DAPI staining assay; assay type: functional, cell-based; conditions: A549, 48 h
NCI-H1299 = experiment: Antiproliferative activity against human NCI-H1299 cells assessed as cell growth inhibition incubated for 48 hrs by DAPI staining assay; assay type: functional, cell-based; conditions: NCI-H1299, 48 h
[4] = Microsomal stability in human liver microsomes assessed as half life; assay type: ADME, Microsome
[5] = Clearance in rat at 1 mg/kg,iv measured upto 10 hrs; assay type: ADME, organism-based; conditions: in vivo
Cytochrome P450 3A4 [6] = target: T2, Cytochrome P450 3A4 (Homo sapiens, UniProt P08684); experiment: Inhibition of CYP3A4 (unknown origin) in presence of NADPH; assay type: ADME
Cytochrome P450 3A4 [7] = target: T2, Cytochrome P450 3A4; experiment: Inhibition of CYP3A4 (unknown origin); assay type: ADME
hERG (KCNH2) [8] = target: T1, hERG (KCNH2); experiment: Inhibition of human ERG at 10 uM; assay type: toxicity

T2 sequence (P08684 whole entry): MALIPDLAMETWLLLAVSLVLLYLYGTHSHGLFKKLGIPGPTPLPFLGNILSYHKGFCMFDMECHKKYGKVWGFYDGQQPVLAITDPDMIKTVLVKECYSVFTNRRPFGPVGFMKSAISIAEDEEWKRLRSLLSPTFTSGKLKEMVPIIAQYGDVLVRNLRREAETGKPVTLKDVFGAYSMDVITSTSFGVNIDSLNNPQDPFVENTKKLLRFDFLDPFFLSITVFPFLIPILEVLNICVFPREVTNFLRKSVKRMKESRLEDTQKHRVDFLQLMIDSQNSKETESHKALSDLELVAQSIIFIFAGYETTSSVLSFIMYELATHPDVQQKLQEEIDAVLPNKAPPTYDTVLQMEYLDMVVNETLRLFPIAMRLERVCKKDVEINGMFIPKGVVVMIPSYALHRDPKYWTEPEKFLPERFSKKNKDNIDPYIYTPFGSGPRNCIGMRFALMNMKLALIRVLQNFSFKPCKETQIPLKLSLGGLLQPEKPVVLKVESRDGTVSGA
T1 sequence (Q12809 whole entry): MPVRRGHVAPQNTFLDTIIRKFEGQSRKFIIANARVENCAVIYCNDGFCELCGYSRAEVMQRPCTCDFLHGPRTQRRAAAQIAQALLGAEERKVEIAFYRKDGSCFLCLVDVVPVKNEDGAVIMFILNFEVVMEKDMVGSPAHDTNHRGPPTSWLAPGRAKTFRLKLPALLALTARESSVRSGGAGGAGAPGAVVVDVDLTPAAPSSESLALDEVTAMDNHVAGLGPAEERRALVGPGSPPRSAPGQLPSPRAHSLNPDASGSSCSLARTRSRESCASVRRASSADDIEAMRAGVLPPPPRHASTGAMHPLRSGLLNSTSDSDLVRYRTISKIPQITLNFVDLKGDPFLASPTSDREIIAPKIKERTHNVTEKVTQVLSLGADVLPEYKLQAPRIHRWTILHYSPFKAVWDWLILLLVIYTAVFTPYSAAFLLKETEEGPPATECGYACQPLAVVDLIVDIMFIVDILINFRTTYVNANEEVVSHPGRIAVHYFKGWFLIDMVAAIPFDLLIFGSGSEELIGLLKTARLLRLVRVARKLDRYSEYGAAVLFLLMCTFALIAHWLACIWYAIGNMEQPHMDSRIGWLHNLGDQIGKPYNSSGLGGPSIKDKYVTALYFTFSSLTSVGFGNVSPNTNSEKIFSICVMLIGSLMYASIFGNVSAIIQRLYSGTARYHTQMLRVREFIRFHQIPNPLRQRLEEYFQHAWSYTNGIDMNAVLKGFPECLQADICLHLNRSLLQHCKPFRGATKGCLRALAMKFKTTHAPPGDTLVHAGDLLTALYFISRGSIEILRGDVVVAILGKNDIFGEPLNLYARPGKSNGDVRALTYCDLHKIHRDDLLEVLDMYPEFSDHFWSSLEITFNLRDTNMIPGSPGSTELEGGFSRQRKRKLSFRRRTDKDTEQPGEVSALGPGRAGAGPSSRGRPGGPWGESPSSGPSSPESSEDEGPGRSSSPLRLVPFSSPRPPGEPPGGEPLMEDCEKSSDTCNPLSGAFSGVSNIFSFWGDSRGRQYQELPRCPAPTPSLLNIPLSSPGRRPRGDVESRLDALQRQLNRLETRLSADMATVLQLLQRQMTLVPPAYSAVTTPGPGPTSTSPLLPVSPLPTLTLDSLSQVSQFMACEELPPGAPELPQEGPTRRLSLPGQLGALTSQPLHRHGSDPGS

Row | Compound | EC50 [1] [nM] | IC50 [2] [nM] | IC50 (A549) [nM] | IC50 (NCI-H1299) [nM] | also measured
1 | N#Cc1ccc(CN2CCC(NC(=O)c3ccc(C(=O)N4CCN(S(=O)(=O)c5ccccc5)CC4)cn3)CC2)cc1 | 360 | – | – | – | –
2 | N#Cc1ccc(CN2CCC(NC(=O)c3ccc(C(=O)N4CCC(C(O)c5ccc(F)cc5)CC4)cn3)CC2)cc1 (stereo not drawn) | 55 | 619 | – | – | –
3 | N#Cc1ccc(CN2CCC(NC(=O)c3ccc(C(=O)N4CCC(C(=O)c5ccc(C#N)cc5)CC4)cn3)CC2)cc1 | 5 | 794 | – | – | inhibition at 3 µM (hERG (KCNH2) [3]): 54%
4 | COc1ccc(S(=O)(=O)N2CCN(C(=O)c3ccc(C(=O)NC4CCN(Cc5ccc(C#N)cc5)CC4)nc3)CC2)cc1 | 548 | – | – | – | –
5 | O=C(NC1CCN(Cc2ccc(OC(F)(F)F)cc2)CC1)c1ccc(C(=O)N2CCC(C(=O)c3ccc(N4CCCC4)cc3)CC2)nc1 | 9 | 1280 | 5060 | 8280 | –
6 | COc1ccc(C(=O)C2CCN(C(=O)c3ccc(C(=O)NC4CCN(Cc5ccc(C(=O)N(C)C)cc5)CC4)cn3)CC2)cc1 | 1050 | – | 13400 | > 20000 | –
7 | N#Cc1ccc(CN2CCC(NC(=O)c3ccc(C(=O)N4CCC(Oc5ccc(F)cc5F)CC4)cn3)CC2)cc1 | 4 | 22 | – | – | –
8 | N#Cc1ccc(CN2CCC(NC(=O)c3ccc(C(=O)N4CCC(C(=O)c5ccc(-n6ccnc6)cc5)CC4)nc3)CC2)cc1 | 312 | – | 15100 | 15100 | –
9 | N#Cc1ccc(S(=O)(=O)N2CCC(NC(=O)c3ccc(C(=O)N4CCN(Cc5ccc(F)cc5)CC4)cn3)CC2)cc1 | 804 | – | – | – | –
10 | CC(C)(C)C(=O)N1CCN(C(=O)c2ccc(C(=O)NC3CCN(Cc4ccc(C#N)cc4)CC3)nc2)CC1 | 532 | – | – | – | –
11 | COc1ccc(OC2CCN(C(=O)c3ccc(C(=O)NC4CCN(Cc5ccc(C#N)cc5)CC4)nc3)CC2)cc1 | 11 | 60 | – | – | half-life [4]: 68 min; inhibition at 3 µM (hERG (KCNH2) [3]): 46%; clearance [5]: 71 mL/min/kg; IC50 (Cytochrome P450 3A4 [6]): > 10000 nM; IC50 (Cytochrome P450 3A4 [7]): > 10000 nM
12 | CS(=O)(=O)c1ccc(C(=O)C2CCN(C(=O)c3ccc(C(=O)NC4CCN(Cc5ccc(F)cc5)CC4)cn3)CC2)cc1 | 2000 | – | 6270 | 8700 | inhibition at 3 µM (hERG (KCNH2) [3]): 83%
13 | COc1ccc(C(=O)N2CCN(C(=O)c3ccc(C(=O)NC4CCN(Cc5ccc(C#N)cc5)CC4)nc3)CC2)cc1 | 175 | – | – | – | –
14 | N#Cc1ccc(CN2CCC(NC(=O)c3ccc(C(=O)N4CCN(S(=O)(=O)c5ccc(F)cc5)CC4)cn3)CC2)cc1 | 393 | – | – | – | –
15 | O=C(NC1CCN(Cc2ccc(F)cc2)CC1)c1ccc(C(=O)N2CCC(C(=O)c3ccc(-n4cccn4)cc3)CC2)nc1 | 21 | 890 | 5930 | 6580 | inhibition at 10 µM (hERG (KCNH2) [8]): 85%
16 | COc1ccc(C(=O)C2CCN(C(=O)c3ccc(C(=O)NC4CCN(Cc5ccc(OC(F)(F)F)cc5)CC4)cn3)CC2)cc1 | 9 | 820 | > 20000 | > 20000 | inhibition at 10 µM (hERG (KCNH2) [8]): 21%
17 | O=C(c1ccc(C(=O)N2CCN(Cc3ccccc3)CC2)nc1)N1CCN(Cc2ccccc2)CC1 | 10000 | – | – | – | –
18 | O=C(NC1CCN(C(=O)C2CCCCC2)CC1)c1ccc(C(=O)N2CCN(Cc3ccc(F)cc3)CC2)cn1 | 300 | – | – | – | –
19 | CC(c1ccccc1)N1CCC(NC(=O)c2ccc(C(=O)N3CCN(Cc4ccc(F)cc4)CC3)cn2)CC1 (stereo not drawn) | 129 | – | – | – | –
20 | N#Cc1ccc(CN2CCC(NC(=O)c3ccc(C(=O)N4CCC(C(=O)c5ccc(-n6cncn6)cc5)CC4)nc3)CC2)cc1 | 437 | – | 4820 | 6310 | –
21 | N#Cc1ccc(CN2CCC(NC(=O)c3ccc(C(=O)N4CCC(Cc5ccccc5)CC4)cn3)CC2)cc1 | 110 | – | – | – | –
22 | N#Cc1ccc(CN2CCC(NC(=O)c3ccc(C(=O)N4CCC(F)(C(=O)c5ccc(F)cc5)CC4)cn3)CC2)cc1 | 2 | 16 | – | – | half-life [4]: 27 min; IC50 (Cytochrome P450 3A4 [6]): > 10000 nM; IC50 (Cytochrome P450 3A4 [7]): > 10000 nM
23 | COc1ccc(CN2CCC(NC(=O)c3ccc(C(=O)N4CCC(C(=O)c5ccc(OC)cc5)CC4)nc3)CC2)cc1 | 41 | 2310 | > 20000 | > 20000 | inhibition at 3 µM (hERG (KCNH2) [3]): 70%
24 | N#Cc1ccc(CN2CCC(NC(=O)c3ccc(C(=O)N4CCN(C(=O)c5ccccc5)CC4)cn3)CC2)cc1 | 1390 | – | – | – | –
25 | O=C(NC1CCN(Cc2ccccc2)CC1)c1ccc(C(=O)N2CCN(Cc3ccccc3)CC2)cn1 | 16 | – | – | – | –
26 | N#Cc1ccc(CN2CCC(NC(=O)c3ccc(C(=O)N4CCC(C(=O)c5ccc(-n6cccn6)cc5)CC4)nc3)CC2)cc1 | 86 | – | 10400 | 10900 | –
27 | COc1ccc(C(=O)C2CCN(C(=O)c3ccc(C(=O)NC4CCN(Cc5ccc(NC(C)=O)cc5)CC4)cn3)CC2)cc1 | 1000 | – | 8790 | 11000 | –

Row | Compound | EC50 [1] [nM] | IC50 [2] [nM] | IC50 (A549) [nM] | IC50 (NCI-H1299) [nM] | also measured
28 | O=C(NC1CCN(Cc2ccccc2)CC1)c1ccc(C(=O)N2CCN(Cc3ccccc3)CC2)nc1 | 35 | 1390 | – | – | –
29 | COc1ccc(CN2CCC(NC(=O)c3ccc(C(=O)N4CCC(C(=O)c5ccc(N6CCCC6)cc5)CC4)nc3)CC2)cc1 | 57 | 200 | 13000 | 8400 | –
30 | N#Cc1ccc(CN2CCC(NC(=O)c3ccc(C(=O)N4CCC(Oc5ccc(C#N)cc5)CC4)cn3)CC2)cc1 | 3 | 125 | – | – | half-life [4]: 30 min; inhibition at 3 µM (hERG (KCNH2) [3]): 47%; IC50 (Cytochrome P450 3A4 [6]): 3500 nM
31 | CS(=O)(=O)c1ccc(C(=O)C2CCN(C(=O)c3ccc(C(=O)NC4CCN(Cc5ccc(C#N)cc5)CC4)cn3)CC2)cc1 | 2000 | – | 6720 | 7190 | –
32 | N#Cc1ccc(CN2CCC(NC(=O)c3ccc(C(=O)N4CCC(C(=O)c5ccc(F)cc5F)CC4)cn3)CC2)cc1 | 27 | 8 | – | – | half-life [4]: 63 min; inhibition at 3 µM (hERG (KCNH2) [3]): 34%; IC50 (Cytochrome P450 3A4 [6]): > 10000 nM; IC50 (Cytochrome P450 3A4 [7]): > 10000 nM
33 | CC(C)(c1ccc(F)cc1)N1CCN(C(=O)c2ccc(C(=O)NC3CCN(Cc4ccc(C#N)cc4)CC3)nc2)CC1 | 6 | – | – | – | –
34 | N#Cc1ccc(C(=O)N2CCC(NC(=O)c3ccc(C(=O)N4CCN(Cc5ccc(F)cc5)CC4)cn3)CC2)cc1 | 950 | – | – | – | –
35 | N#Cc1ccc(CN2CCC(NC(=O)c3ccc(C(=O)N4CCC(C(=O)c5ccc(N6CCCC6)cc5)CC4)nc3)CC2)cc1 | 20 | 1660 | 5050 | 5390 | –
36 | O=C(NC1CCN(Cc2ccccc2)CC1)c1ccc(C(=O)NC2CCN(Cc3ccccc3)CC2)nc1 | 10000 | – | – | – | –
37 | N#Cc1ccc(CN2CCC(NC(=O)c3ccc(C(=O)N4CCN(Cc5ccc(F)cc5)C(=O)C4)cn3)CC2)cc1 | 466 | – | – | – | –
38 | N#Cc1ccc(CN2CCC(NC(=O)c3ccc(C(=O)N4CCC(C(F)c5ccc(F)cc5)CC4)cn3)CC2)cc1 (stereo not drawn) | 6 | 1 | – | – | half-life [4]: 8 min; IC50 (Cytochrome P450 3A4 [6]): 9800 nM
39 | CC1(C)CN(C(=O)c2ccc(C(=O)NC3CCN(Cc4ccc(C#N)cc4)CC3)nc2)CCN1Cc1ccc(F)cc1 | 1 | – | – | – | –
40 | N#Cc1ccc(CC2CCN(C(=O)c3ccc(C(=O)NC4CCN(Cc5ccc(C#N)cc5)CC4)nc3)CC2)cc1 | 14 | 33 | – | – | half-life [4]: 14 min
41 | COc1ccc(C(=O)C2CCN(C(=O)c3ccc(C(=O)NC4CCN(Cc5ccc(N)cc5)CC4)cn3)CC2)cc1 | 1000 | – | 8990 | 13800 | –
42 | N#Cc1ccc(CN2CCC(NC(=O)c3ccc(C(=O)N4CCN(Cc5ccc(F)cc5)CC4)cn3)CC2)cc1 | 1 | – | – | – | half-life [4]: 55 min; inhibition at 3 µM (hERG (KCNH2) [3]): 36%; clearance [5]: 200 mL/min/kg
43 | O=C(NC1CCN(C(=O)c2ccccc2)CC1)c1ccc(C(=O)N2CCN(Cc3ccc(F)cc3)CC2)cn1 | 240 | – | – | – | –
44 | N#Cc1ccc(CN2CCC(NC(=O)c3ccc(C(=O)N4CCC(C(=O)c5ccc(F)cc5F)CC4)nc3)CC2)cc1 | 18 | 1870 | – | – | inhibition at 3 µM (hERG (KCNH2) [3]): 64%
45 | COc1ccc(CN2CCC(NC(=O)c3ccc(C(=O)N4CCC(C(=O)c5ccc(S(C)(=O)=O)cc5)CC4)nc3)CC2)cc1 | 1500 | – | 7160 | 8720 | –
46 | N#Cc1ccc(CN2CCC(NC(=O)c3ccc(C(=O)N4CCC(Oc5ccc(F)cc5F)CC4)nc3)CC2)cc1 | 13 | 522 | – | – | inhibition at 3 µM (hERG (KCNH2) [3]): 36%
47 | COc1ccc(CC2CCN(C(=O)c3ccc(C(=O)NC4CCN(Cc5ccc(C#N)cc5)CC4)nc3)CC2)cc1 | 1 | 7 | – | – | half-life [4]: 46 min; IC50 (Cytochrome P450 3A4 [6]): > 10000 nM; IC50 (Cytochrome P450 3A4 [7]): 2000 nM
48 | O=C(NC1CCN(Cc2ccc(F)cc2)CC1)c1ccc(C(=O)N2CCC(C(=O)c3ccc(N4CCCC4)cc3)CC2)nc1 | 12 | 730 | 8670 | 9270 | half-life [4]: 63 min; inhibition at 10 µM (hERG (KCNH2) [8]): 82%; clearance [5]: 269 mL/min/kg
49 | N#Cc1ccc(CN2CCC(NC(=O)c3ccc(C(=O)N4CCC(Oc5ccc(C#N)cc5)CC4)nc3)CC2)cc1 | 92 | 476 | – | – | –
50 | COc1ccc(C(=O)C2CCN(C(=O)c3ccc(C(=O)NC4CCN(Cc5ccc(S(C)(=O)=O)cc5)CC4)cn3)CC2)cc1 | – | – | 9140 | 5520 | –
51 | COc1ccc(C(=O)C2CCN(C(=O)c3ccc(C(=O)NC4CCN(Cc5ccc(F)cc5)CC4)cn3)CC2)cc1 | 27 | 2390 | > 20000 | > 20000 | half-life [4]: 71 min; inhibition at 3 µM (hERG (KCNH2) [3]): 64%
52 | N#Cc1ccc(CN2CCC(NC(=O)c3ccc(C(=O)N4CCN(C(=O)c5ccc(F)cc5)CC4)cn3)CC2)cc1 | 413 | – | – | – | –
53 | CC(C)(c1ccccc1)N1CCC(NC(=O)c2ccc(C(=O)N3CCN(Cc4ccc(F)cc4)CC3)cn2)CC1 | 2790 | – | – | – | –
54 | N#Cc1ccc(CN2CCC(NC(=O)c3ccc(C(=O)N4CCC(C(=O)c5ccc(F)cc5)CC4)cn3)CC2)cc1 | 2 | 21 | – | – | –
